Read-outs that look alike come from different tables or passages of the source.
How the values were obtained:
[1] = biological target: T1, human synovial fluid PLA2 (Homo sapiens, UniProt P14555); test: Millimolar Calcium-Dependent PLA2 Assay (human synovial fluid PLA2, [14C]-oleate labeled E. coli substrate); assay type: biochemical; settings: pH 7.0, 5 mM CaCl2, 30 min at 37° C., ">>" = little or no inhibition at highest concentration used
T1 construct: Purified human synovial fluid PLA2; tissue R. C; Franson (Medical College of Virginia, Richmond, Va.); host or cells: human synovial fluid
T1 sequence (P14555 21-144): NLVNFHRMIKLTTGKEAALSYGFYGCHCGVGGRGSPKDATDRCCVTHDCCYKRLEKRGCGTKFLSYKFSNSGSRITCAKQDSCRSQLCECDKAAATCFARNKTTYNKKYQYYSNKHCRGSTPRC
From the text: (§1) Specifically, one micromolar calcium-dependent mammalian PLA2 assay was used, i.e., sheep platelet PLA2, and two millimolar calcium-dependent mammalian PLA2 assays were used, i.e., human synovial fluid PLA2 and porcine pancreatic PLA2. The PLA2 enzymes represent different groups of PLA2 enzymes. Myocardial PLA2, platelet PLA2 and secreted PLA2 enzymes (human synovial fluid PLA2 and porcine pancreatic PLA2) have very different calcium requirements, which may be typical of their respective classes.
(§2) Millimolar Calcium-Dependent PLA2 Assays
Purified human synovial fluid PLA2 (purified by the procedure of Fawzy, A. A. and Franson, R. C. Biophys. J. 49, 533a [1986]) was obtained from R. C. Franson (Medical College of Virginia, Richmond, Va.). PLA2 activity was measured by using [^14 C]-oleate labeled autoclaved E. coli as substrate as described by Franson, R. C., Patriarca, P., and Elsbach, P. J., Lipid Res. 15, 380-388 (1974). The assay was performed at 37° C. for 30 min. in a final volume of 100 μL 50 mM Hepes buffer (pH 7.0) containing 150 mM NaCl, 5 mM CaCl2, and E. coli cells (corresponding to 10 nmol phospholipid). The test compound or control vehicle was preincubated with PLA2 for 5 min., followed by adding E. coli to initiate the reaction. The reaction was terminated by adding 2 mL tetrahydrofuran. The reaction product, [^14 C]-oleic acid, was isolated using a 1 mL Bond Elute--NH2 column and counted by liquid scintillation spectrometry.

[2] = biological target: T2, porcine pancreatic PLA2 (Sus scrofa, UniProt P00592); test: Millimolar Calcium-Dependent PLA2 Assay (porcine pancreatic PLA2, [14C]-oleate labeled E. coli substrate); assay type: biochemical
T2 construct: Purified porcine pancreatic PLA2 was obtained from Sigma; purchased Sigma (St. Louis, Mo.); host or cells: porcine pancreas
From the text: as §1, §2
Purified porcine pancreatic PLA2 was obtained from Sigma (St. Louis, Mo.). PLA2 activity was measured by using [14C]-oleate labeled autoclaved E. coli as described by Franson, Patriarca and Elsbach (referenced above). The assay was performed at 37° C. for 5 min. in a final volume of 100 μL Tris-HCl buffer (100 mM, pH 8.0) containing 1 mM EDTA, 10 mM CaCl2, and E. coli (containing […] phospholipid). The test compound or control vehicle was preincubated with PLA2 for 5 min. followed by adding E. coli to initiate the reaction. The reaction was terminated by adding 2 mL tetrahydrofuran. The reaction product [^14 C]-oleic acid, was isolated using a 1 mL Bond Elute--NH2 column and counted by liquid scintillation spectrometry.

[3] = test system: HL-60 cells; test: HL-60 Cell Assay for LTB4 and PGE2 Production (calcium ionophore A23187 induced); assay type: cell-based; settings: Homo sapiens; for IC50: A23187 5×10^-6 M
Procedure: An additional whole cell assay was also performed. In this assay, HL-60 cells are induced with the calcium ionophore A23187 in the presence of varying amounts of inhibitor, and the amounts of the prostaglandin E2 (PGE2) and leukotriene B4 (LTB4) which form are measured. Calcium ionophore A23187 activates a calcium-dependent PLA2 which leads to the enhanced production of the arachidonic acid metabolites PGE2 and LTB4. The concentrations of inhibitor which decrease the production of PGE2 and LTB4 by 50% relative to controls are expressed as IC50 values.
HL-60 Cell Assay for LTB4 and PGE2 Production
HL-60 cells grown exponentially in culture were induced to differentiate into granulocytes by a four day incubation with 0.8% (v/v) N,N-dimethylformamide. Prior to assay, differentiated HL-60 cells were washed once with Hanks' balanced salt solution containing 0.35 mg/mL sodium bicarbonate and 10 mM Hepes, pH 7.3 (HBSS) and resuspended in HBSS at a 3×10^6 cells/mL concentration. DMSO or test compounds solubilized in DMSO were added at 1:100 dilution to 1.0 mL HL-60 cell suspensions (3×10^6 cells) and preincubated at 37° C. for 10 min. in a shaking water bath. After an additional 5 min. incubation with 5×10^-6 M calcium ionophore, A23187 (Calbiochem, LaJolla, Calif.), the cells were centrifuged at 12,800×6 for 15 seconds and the supernatant (0.8 mL) removed and stored at -20° C. for LTB4 and PGE2 quantitation by radioimmunoassay (kits obtained from Amersham, United Kingdom and NEN Research Products, N. Billerica, Mass.).

[4] = test system: purified calcium-independent canine myocardial PLA2; test: Calcium-Independent PLA2 Assay (purified canine myocardial cytosolic PLA2, release of radiolabeled oleic acid); assay type: biochemical; settings: pH 7.0, 6.4 mM EGTA, 1 μM substrate, 5 min at 37° C., read-out: IC50 Canine Heart PLA2
Procedure: This assay consists of determining the amount of radiolabeled fatty acid which is liberated from the radiolabeled phospholipid substrate by purified calcium-independent canine myocardial PLA2 in the presence of varying concentrations of the inhibitor. The concentration of inhibitor which decreases the activity of the enzyme to 50% of the activity observed in the absence of that inhibitor is determined. This concentration is defined as the IC50.
Calcium-Independent PLA2 Assay
Purified canine myocardial cytosolic PLA2 was isolated from an ATP-agarose eluate as described by Wolf, R. A., and Gross, R. W., J. Biol. Chem., 260, 7295-7303 (1985). The calcium-independent myocardial PLA2 was incubated with selected concentrations (10^-10 to 10^-4 M) of test compound in 168 mM Tris-Cl, 6.4 mM EGTA (a calcium chelator) (pH 7.0) for 5 min. at 25° C. Appropriate controls were performed in the absence of test compound. Catalysis was initiated by injection of 1 μM radiolabeled substrate (1-O-(Z)-(1'-hexadecenyl)-2-[9,10^-3 H]-oleoyl-3-phosphorylcholine). After a 5 min. incubation at 37° C., reaction products were extracted with n-butanol, separated by thin layer chromatography, and quantified by scintillation spectrometry. PLA2 activity was compared in the presence and absence of test compound and the IC50 was determined.

[5] = test system: sheep platelet PLA2; test: Micromolar Calcium-Dependent PLA2 Assay (sheep platelet cytosolic PLA2); assay type: biochemical; settings: pH 7.2, 1 μM CaCl2, 1 μM substrate, 10 min at 37° C.
From the text: as §1
Micromolar Calcium-Dependent PLA2 Assay
Homogeneous sheep platelet cytosolic PLA2 was prepared as described by Loeb, L. A., and Gross, R. W., J. Biol. Chem., 261, 10467-10470 (1986). The purified calcium-dependent platelet PLA2 was preincubated in 70 mM Tris-Cl (pH 7.2) containing 1 μM CaCl2 and test compound for 5 min. at 25° C. Catalysis was initiated by injection of 1 μM radiolabeled substrate (1-O-(Z)-(1'-hexadecenyl)-2-[9,10^-3 H]-oleoyl-3-phosphorylcholine). After a 10 min. incubation period at 37° C., reaction products were extracted with n-butanol, separated by thin layer chromatography, and quantified by scintillation spectrometry. PLA2 activity was compared in the presence and absence of test compound and the IC50 was determined.
See Zupan, L. A., et al, "Calcium is sufficient but not necessary for activation of sheep platelet cytosolic phospholipase A2 ", FEBS Letters, Vol. 284, No. 1, 27-30 (1991).

[6] = test system: rat neonatal myocytes; settings: cited from earlier work
[7] = human synovial fluid, read-out: IC50 HSF PLA2
[8] = pH 8.0, 10 mM CaCl2, 5 min at 37° C., ">>" = little or no inhibition at highest concentration used, read-out: IC50 Porcine Pancreatic PLA2
[9] = LTB4 production, ">>" = little or no inhibition at highest concentration used, read-out: IC50 HL-60 LTB4
[10] = PGE2 production, ">" inhibition but not enough for IC50, ">>" little or no inhibition at highest concentration, read-out: IC50 HL-60 PGE2
[11] = IC50 HSF PLA2, human synovial fluid

T2 sequence (P00592 23-146): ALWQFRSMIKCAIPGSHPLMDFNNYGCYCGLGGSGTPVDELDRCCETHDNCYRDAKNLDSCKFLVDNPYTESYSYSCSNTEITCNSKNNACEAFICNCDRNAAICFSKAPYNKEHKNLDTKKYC

Structure (SMILES)	IC50 [1, 7]	IC50 [3, 9]	IC50 [3, 10]	IC50 [4]	IC50 [5]	also measured
CCCCCCCCCCCC#Cc1ccccc1/C=C(\C(=O)OCC)P(=O)(O)O [Example 6, Ethyl E-2-phosphono-3-[2-(1-tridecynyl)phenyl]propenoate]	16 µM	4.4 µM	3.5 µM			IC50 [2, 8]: 2.5 µM
CCCCCCCCCCCC#Cc1cccc(C=C(P(=O)(OCC)OCC)P(=O)(OCC)OCC)c1 [Example 1, Tetraethyl [2-[3-(1-tridecynyl)phenyl]ethenylidene]bisphosphonate]	> 100 µM	1.2 µM	3 µM	0.56 µM	0.18 µM	activation at 100 µM ([2]; 5 min, footnote a to the entry 100 (μM), + = activation): 40%; IC50 [2, 8]: 100 µM
CCCCCCCCCCCC#Cc1cccc(C=C(P(=O)(O)O)P(=O)(O)O)c1 [Example 3, Disodium [2-[3-(1-tridecynyl)phenyl]ethenylidene]bisphosphonate]				0.36 µM	3.2 µM	IC50 [1, 11]: 38 µM
CCCCCCCCCCCC#Cc1ccccc1/C=C(\C(=O)OCC)P(=O)(OCC)OCC [Example 5, Ethyl 2-(diethoxyphosphinyl)-3-[2-(1-tridecynyl)phenyl]-2-E-propenoate]	> 100 µM	1.3 µM	2.3 µM	0.34 µM	2.4 µM	IC50 [2, 8]: > 100 µM
CCCCCCCCCCCC#Cc1ccccc1C=C(P(=O)(O)O)P(=O)(O)O [Example 10, [2-[2-(1-Tridecynyl)phenyl]ethenylldene]bisphosphonic acid]	50 µM	10 µM	> 10 µM	0.71 µM	50 µM	IC50 [2]: > 100 µM; activation at 10 µM ([3]; footnote b to the entry 10 (μM), + = activation, LTB4): 21%
CCCCCCCCCCCC#Cc1ccccc1/C=C/P(=O)(OCC)OCC [Example 13, Diethyl E-2-[2-(1-tridecynyl)phenyl]ethenylphosphonate]				3 µM	1.1 µM	
CCCCCCCCCCCC#Cc1ccccc1/C=C/P(=O)(O)O [Example 14, 2-[2-(1-Tridecynyl)phenyl]ethenylphosphonic acid]				4.5 µM	2.9 µM	
CCCCCCCCCCCC#Cc1ccccc1C=C(P(=O)(O)O)P(=O)(O)O [Example 11, Disodium [2-[2-(1-tridecynyl)phenyl]ethenylidene]bisphosphonate]				1.9 µM	2.8 µM	IC50 [1, 11]: 25 µM
CCCCCCCCC(=O)NCC#Cc1ccccc1C=C(P(=O)(OCC)OCC)P(=O)(OCC)OCC [Example 18, Tetraethyl [2-[2-[3-[(1-oxononyl)amino]-1-propynyl]phenyl]ethenylidene]bisphosphonate]				> 100 µM	~100 µM	
CCCCCCCCCCCC#Cc1ccccc1C=C(P(=O)(OCC)OCC)P(=O)(OCC)OCC [Example 9, Tetraethyl [2-[2-(1-tridecynyl)phenyl]ethenylidene]bisphosphonate]	> 100 µM	2.6 µM	4.4 µM	1.5 µM	0.16 µM	
O=C(O)CI [iodoacetate]						levels of ATP, release of arachidonic acid and morphological alterations of the myocytes ([6]; rat neonatal myocytes, Chien et al 1985 (cited)): lowers the levels of ATP which results in the release of arachidonic acid and morphological alterations of the myocytes
CCCCCCCCCCCC#Cc1cccc(C=C(P(=O)(O)O)P(=O)(O)O)c1 [Example 2, [2-[3-(1-Tridecynyl)phenyl]ethenylidene]bisphosphonic acid]	31 µM	> 10 µM	> 10 µM	0.45 µM	11 µM	IC50 [2]: > 100 µM
COC1=CCC2=C(CCC3C2CC[C@@]2(C)C3CC[C@@H]2N(C)CCCN(C)C)C1 (stereo partly drawn) [U26,384]						release of arachidonic acid, phospholipid degradation, sarcolemmal membrane defects and release of creatine kinase induced by iodoacetate ([6]; rat neonatal myocytes treated with iodoacetate, Sen et al (cited)): prevented the release of arachidonic acid, phospholipid degradation, sarcolemmal membrane defects and the release of creatine kinase
CCCCCCCCCCCC#Cc1cccc(P(=O)(OCC)OCC)c1 [Example 8, Diethyl [3-(1-tridecynyl)phenyl]phosphonate]				0.36 µM	0.22 µM	

— patent publication US5648349A, “PLA2 inhibitors” (Monsanto Company, priority 1995, dated 1997)
